Assay results reported in patent publication US8758816B2, “Compositions comprising azelastine and methods of use thereof” (priority 2004, dated 2014).

Tested on: patients with seasonal allergic rhinitis (SAR)
Test: MP 428 two-week randomized double-blind study: Total Nasal Symptom Score (TNSS), change from baseline
Format: in vivo, human
Design: key to Change from Baseline in AM TNSS, Mean / Change from Baseline in AM TNSS, LS Mean / Change from Baseline in AM TNSS, Median: TNSS sum of 4 symptoms each 0-3 (0=none, 3=severe); change from baseline
Experimental: A two-week, randomized, double-blind study, which evaluated the effects of the co-administration of ASTELIN® (azelastine hydrochloride (HCl)) and FLONASE® (fluticasone propionate) compared to either product alone in patients with seasonal allergic rhinitis (SAR) was conducted during the 2006 Texas mountain cedar season. After a 5-day placebo lead-in period, 151 patients with moderate-to-severe allergic rhinitis symptoms were randomized to either: (1) (49 total patients) ASTELIN® (azelastine hydrochloride (HCl)) plus placebo saline nasal spray 2 sprays per nostril, 15 minutes apart, twice daily (AM & PM); (2) (50 total patients) FLONASE® (fluticasone propionate) plus placebo saline nasal spray, 2 sprays per nostril, 15 minutes apart, once daily (AM) and two sessions of placebo saline nasal spray, 2 sprays per nostril, 15 minutes apart (PM); or (3) (52 total patients) the co-administration of ASTELIN® (azelastine hydrochloride (HCl)) 2 sprays per nostril plus FLONASE® (fluticasone propionate) 2 sprays per nostril (AM), 15 minutes apart, and ASTELIN® (azelastine hydrochloride (HCl)) 2 sprays per nostril plus placebo saline nasal spray, 15 minutes apart, (PM) for a 2-week double-blind treatment period.
The primary efficacy variable was the change from baseline in the Total Nasal Symptom Score (TNSS), which comprised sneezing, itchy nose, runny nose, and nasal congestion (individual symptoms scores were assigned a value between 0 and 3, where 0=no symptoms and 3=severe symptoms). This study was not statistically designed to assess the differences between ASTELIN® and FLONASE®.

[1] = Day 5, Intent-to-Treat Population
[2] = Day 6, Intent-to-Treat Population
[3] = Day 7, Intent-to-Treat Population
[4] = Day 8, Intent-to-Treat Population
[5] = Day 9, Intent-to-Treat Population

CCC(=O)O[C@]1(C(=O)SCF)[C@H](C)C[C@H]2[C@@H]3C[C@H](F)C4=CC(=O)C=C[C@]4(C)[C@@]3(F)[C@@H](O)C[C@@]21C [Fluticasone, fluticasone propionate]
Percent Change from Baseline in AM and PM Combined TNSS, Mean [1]: −26.89% | Percent Change from Baseline in AM and PM Combined TNSS, Median [1]: −22.77% | Percent Change from Baseline in PM TNSS, LS Mean [1]: −27.51% | Percent Change from Baseline in PM TNSS, Mean [1]: −27.06% | Percent Change from Baseline in PM TNSS, Median [1]: −22.22% | Change from Baseline in AM and PM Combined TNSS, LS Mean (Day 5, Intent-to-Treat Population, ANCOVA model): −5.20 | Change from Baseline in AM and PM Combined TNSS, LS Mean (Day 5, Per-Protocol Population): −5.23 | Change from Baseline in AM and PM Combined TNSS, Mean (Day 5, Per-Protocol Population): −5.23 | Change from Baseline in AM and PM Combined TNSS, Median (Day 5, Per-Protocol Population): −4.40 | Percent Change from Baseline in AM and PM Combined TNSS, LS Mean (Day 5, Per-Protocol Population): −27.42% | Percent Change from Baseline in AM and PM Combined TNSS, Mean (Day 5, Per-Protocol Population): −27.16% | Percent Change from Baseline in AM and PM Combined TNSS, Median (Day 5, Per-Protocol Population): −22.77% | Change from Baseline in AM TNSS, LS Mean [2]: −2.59 | Change from Baseline in AM TNSS, Mean [2]: −2.57 | Change from Baseline in AM TNSS, Median [2]: −2.20 | Change from Baseline in AM and PM Combined TNSS, Mean [2]: −5.10 | Change from Baseline in AM and PM Combined TNSS, Median [2]: −4.45 | Change from Baseline in PM TNSS, LS Mean [2]: −2.53 | Change from Baseline in PM TNSS, Mean [2]: −2.53 | Change from Baseline in PM TNSS, Median [2]: −2.00 | Percent Change from Baseline in AM TNSS, LS Mean [2]: −27.42% | Percent Change from Baseline in AM TNSS, Mean [2]: −27.12% | Percent Change from Baseline in AM TNSS, Median [2]: −23.81% | Percent Change from Baseline in AM and PM Combined TNSS, LS Mean [2]: −27.15% | Percent Change from Baseline in AM and PM Combined TNSS, Mean [2]: −26.90% | Percent Change from Baseline in AM and PM Combined TNSS, Median [2]: −22.20% | Percent Change from Baseline in PM TNSS, LS Mean [2]: −26.81% | Percent Change from Baseline in PM TNSS, Mean [2]: −26.62% | Percent Change from Baseline in PM TNSS, Median [2]: −22.22% | Change from Baseline in AM and PM Combined TNSS, LS Mean (Day 6, Intent-to-Treat Population, ANCOVA model): −5.12 | Change from Baseline in AM and PM Combined TNSS, LS Mean (Day 6, Per-Protocol Population): −5.11 | Change from Baseline in AM and PM Combined TNSS, Mean (Day 6, Per-Protocol Population): −5.12 | Change from Baseline in AM and PM Combined TNSS, Median (Day 6, Per-Protocol Population): −4.45 | Percent Change from Baseline in AM and PM Combined TNSS, LS Mean (Day 6, Per-Protocol Population): −27.15% | Percent Change from Baseline in AM and PM Combined TNSS, Mean (Day 6, Per-Protocol Population): −26.95% | Percent Change from Baseline in AM and PM Combined TNSS, Median (Day 6, Per-Protocol Population): −22.20% | Change from Baseline in AM TNSS, LS Mean [3]: −2.55 | Change from Baseline in AM TNSS, Mean [3]: −2.57 | Change from Baseline in AM TNSS, Median [3]: −2.00 | Change from Baseline in AM and PM Combined TNSS, Mean [3]: −5.02 | Change from Baseline in AM and PM Combined TNSS, Median [3]: −5.00 | Change from Baseline in PM TNSS, LS Mean [3]: −2.50 | Change from Baseline in PM TNSS, Mean [3]: −2.45 | Change from Baseline in PM TNSS, Median [3]: −2.00 | Percent Change from Baseline in AM TNSS, LS Mean [3]: −26.16% | Percent Change from Baseline in AM TNSS, Mean [3]: −26.29% | Percent Change from Baseline in AM TNSS, Median [3]: −22.22% | Percent Change from Baseline in AM and PM Combined TNSS, LS Mean [3]: −26.00% | Percent Change from Baseline in AM and PM Combined TNSS, Mean [3]: −25.75% | Percent Change from Baseline in AM and PM Combined TNSS, Median [3]: −23.81% | Percent Change from Baseline in PM TNSS, LS Mean [3]: −25.72% | Percent Change from Baseline in PM TNSS, Mean [3]: −25.18% | Percent Change from Baseline in PM TNSS, Median [3]: −20.45% | Change from Baseline in AM and PM Combined TNSS, LS Mean (Day 7, Intent-to-Treat Population, ANCOVA model): −5.06 | Change from Baseline in AM and PM Combined TNSS, LS Mean (Day 7, Per-Protocol Population): −4.98 | Change from Baseline in AM and PM Combined TNSS, Mean (Day 7, Per-Protocol Population): −4.99 | Change from Baseline in AM and PM Combined TNSS, Median (Day 7, Per-Protocol Population): −5.00 | Percent Change from Baseline in AM and PM Combined TNSS, LS Mean (Day 7, Per-Protocol Population): −25.63% | Percent Change from Baseline in AM and PM Combined TNSS, Mean (Day 7, Per-Protocol Population): −25.57% | Percent Change from Baseline in AM and PM Combined TNSS, Median (Day 7, Per-Protocol Population): −23.81% | Change from Baseline in AM TNSS, LS Mean [4]: −2.40 | Change from Baseline in AM TNSS, Mean [4]: −2.36 | Change from Baseline in AM TNSS, Median [4]: −1.67 | Change from Baseline in AM and PM Combined TNSS, Mean [4]: −4.55 | Change from Baseline in AM and PM Combined TNSS, Median [4]: −3.70 | Change from Baseline in PM TNSS, LS Mean [4]: −2.24 | Change from Baseline in PM TNSS, Mean [4]: −2.18 | Change from Baseline in PM TNSS, Median [4]: −2.00 | Percent Change from Baseline in AM TNSS, LS Mean [4]: −25.01% | Percent Change from Baseline in AM TNSS, Mean [4]: −24.67% | Percent Change from Baseline in AM TNSS, Median [4]: −19.23% | Percent Change from Baseline in AM and PM Combined TNSS, LS Mean [4]: −23.87% | Percent Change from Baseline in AM and PM Combined TNSS, Mean [4]: −23.38% | Percent Change from Baseline in AM and PM Combined TNSS, Median [4]: −20.97% | Percent Change from Baseline in PM TNSS, LS Mean [4]: −22.44% | Percent Change from Baseline in PM TNSS, Mean [4]: −21.91% | Percent Change from Baseline in PM TNSS, Median [4]: −21.95% | Change from Baseline in AM and PM Combined TNSS, LS Mean (Day 8, Intent-to-Treat Population, ANCOVA model): −4.64 | Change from Baseline in AM and PM Combined TNSS, LS Mean (Day 8, Per-Protocol Population): −4.61 | Change from Baseline in AM and PM Combined TNSS, Mean (Day 8, Per-Protocol Population): −4.59 | Change from Baseline in AM and PM Combined TNSS, Median (Day 8, Per-Protocol Population): −3.70 | Percent Change from Baseline in AM and PM Combined TNSS, LS Mean (Day 8, Per-Protocol Population): −23.68% | Percent Change from Baseline in AM and PM Combined TNSS, Mean (Day 8, Per-Protocol Population): −23.43% | Percent Change from Baseline in AM and PM Combined TNSS, Median (Day 8, Per-Protocol Population): −20.97% | Change from Baseline in AM TNSS, LS Mean [5]: −2.43 | Change from Baseline in AM TNSS, Mean [5]: −2.38
